# Columns and labels:
# Type in all cases: cell-based
# [1] = Displacement of [3H]epibatidine from Aplysia californica AchBP S114M, M116L, Y195F mutant expressed in HEK293S cells by scintillation proximity assay
# [2] = Displacement of [3H]epibatidine from Aplysia californica AchBP I118M mutant expressed in HEK293S cells by scintillation proximity assay
# [3] = Displacement of [3H]epibatidine from Aplysia californica AchBP I118M, M116L mutant expressed in HEK293S cells by scintillation proximity assay
# [4] = Displacement of [3H]epibatidine from Aplysia californica AchBP A107M, M116L mutant expressed in HEK293S cells by scintillation proximity assay
# [5] = Displacement of [3H]epibatidine from Aplysia californica AchBP A107M, M116L, Y195F mutant expressed in HEK293S cells by scintillation proximity assay
# [6] = Displacement of [3H]epibatidine from Aplysia californica AchBP I106M, M116L, Y195F mutant expressed in HEK293S cells by scintillation proximity assay
# [7] = Displacement of [3H]epibatidine from Aplysia californica AchBP I118M, M116L, Y195F mutant expressed in HEK293S cells by scintillation proximity assay
# [8] = Displacement of [3H]epibatidine from Aplysia californica AchBP I106M, M116L mutant expressed in HEK293S cells by scintillation proximity assay
# [9] = Displacement of [3H]epibatidine from Aplysia californica AchBP V108M, M116L mutant expressed in HEK293S cells by scintillation proximity assay
# [10] = Displacement of [3H]epibatidine from Aplysia californica AchBP V108M, M116L, Y195F mutant expressed in HEK293S cells by scintillation proximity assay
# [11] = Displacement of [3H]epibatidine from Aplysia californica AchBP M116L,Y195F mutant expressed in HEK293S cells by scintillation proximity assay
# [12] = Displacement of [3H]epibatidine from Aplysia californica AchBP M116Y, Y195F mutant expressed in HEK293S cells by scintillation proximity assay
# [13] = Displacement of [3H]epibatidine from Aplysia californica AchBP V108M mutant expressed in HEK293S cells by scintillation proximity assay
# [14] = Displacement of [3H]epibatidine from Aplysia californica AchBP S114M mutant expressed in HEK293S cells by scintillation proximity assay
# [15] = Displacement of [3H]epibatidine from Aplysia californica AchBP M116Y mutant expressed in HEK293S cells by scintillation proximity assay
# [16] = Displacement of [3H]epibatidine from Aplysia californica AchBP S114M, M116L mutant expressed in HEK293S cells by scintillation proximity assay
# [17] = Displacement of [3H]epibatidine from wild type Aplysia californica AchBP expressed in HEK293S cells by scintillation proximity assay
# [18] = Displacement of [3H]epibatidine from Aplysia californica AchBP Y195F mutant expressed in HEK293S cells by scintillation proximity assay
# [19] = Displacement of [3H]epibatidine from Aplysia californica AchBP M116L mutant expressed in HEK293S cells by scintillation proximity assay
# [20] = Displacement of [3H]epibatidine from Aplysia californica AchBP A107M mutant expressed in HEK293S cells by scintillation proximity assay
structure (smiles),measurement,setting,value
N#C/N=c1\sccn1Cc1cnc(Cl)c(N=[N+]=[N-])c1,Kd,[1],7.2 nM
same,Kd,[2],70 nM
same,Kd,[3],68 nM
same,Kd,[4],1.6 nM
same,Kd,[5],17 nM
same,Kd,[6],5.5 nM
same,Kd,[7],172 nM
same,Kd,[8],3.2 nM
same,Kd,[9],0.46 nM
same,Kd,[10],0.17 nM
same,Kd,[11],3 nM
same,Kd,[12],19 nM
same,Kd,[13],1.1 nM
same,Kd,[14],2 nM
same,Kd,[15],27 nM
same,Kd,[16],3 nM
same,Kd,[17],1.7 nM
same,Kd,[18],2.3 nM
same,Kd,[19],9.6 nM
same,Kd,[20],3 nM
[N-]=[N+]=Nc1cc(C2CC3CCC2N3)cnc1Cl (stereo not given) [AZIDOEPIBATIDINE],Kd,[1],19 nM
same,Kd,[2],4.5 nM
same,Kd,[3],4.8 nM
same,Kd,[4],8.1 nM
same,Kd,[5],37 nM
same,Kd,[6],22 nM
same,Kd,[7],12 nM
same,Kd,[8],30 nM
same,Kd,[9],0.58 nM
same,Kd,[10],0.33 nM
same,Kd,[11],10 nM
same,Kd,[12],67 nM
same,Kd,[13],1.5 nM
same,Kd,[14],12 nM
same,Kd,[15],34 nM
same,Kd,[16],15 nM
same,Kd,[17],10 nM
same,Kd,[18],8.6 nM
same,Kd,[19],21 nM
same,Kd,[20],7.2 nM
N#C/N=c1\sccn1Cc1ccc(Cl)nc1 [THIACLOPRID OLEFIN],Kd,[1],13 nM
same,Kd,[2],239 nM
same,Kd,[3],299 nM
same,Kd,[4],3 nM
same,Kd,[5],20 nM
same,Kd,[6],4.9 nM
same,Kd,[7],247 nM
same,Kd,[8],4.3 nM
same,Kd,[9],4.8 nM
same,Kd,[10],1.8 nM
same,Kd,[11],4.7 nM
same,Kd,[12],60 nM
same,Kd,[13],9.2 nM
same,Kd,[14],6.2 nM
same,Kd,[15],144 nM
same,Kd,[16],5.6 nM
same,Kd,[17],2.8 nM
same,Kd,[18],3.1 nM
same,Kd,[19],11 nM
same,Kd,[20],4 nM

# Source: ChEMBL document CHEMBL1136964, “Nicotinic agonist binding site mapped by methionine- and tyrosine-scanning coupled with azidochloropyridinyl photoaffinity labeling” (J Med Chem, 2009)
